Values quoted from earlier work as cited in patent publication US8912192B2, “Extended release preparation” (Taisho Pharmaceutical Co., Ltd, priority 2010, dated 2014).
Where a name gives a salt, the structure may show the parent alone. Read-outs that look alike come from different tables or passages of the source.

Experiments:
[1] = preparation containing a pharmaceutically acceptable salt of compound A, oral, dogs, fasting state
[2] = pharmaceutically acceptable salt of compound A
[3] = system: phosphodiesterase III enzymes; details: compound A or a pharmaceutically acceptable salt thereof

| Structure (SMILES) | bioavailability [1] | solubility in water ([2]; around neutral pH range similar to enteric environment) | solubility in water ([2]; pH range of about 4.0 or higher) | inhibitory effect against phosphodiesterase III enzymes [3] | half-life period in blood plasma (blood plasma) | half-life period (in vivo) |
| --- | --- | --- | --- | --- | --- | --- |
| O=c1[nH]nc(OCCCc2ccc(Cl)cc2)c(NCc2cccnc2)c1Br [compound A, 4-bromo-6-[3-(4-chlorophenyl)propoxy]-5-(3-pyridylmethylamino)-3(2H)-pyridazinone] | about 10% | quite poorly soluble | decreases its solubility in water | has an inhibitory effect against phosphodiesterase III enzymes | about 1.5 hours |  |
| CC(N)C(O)c1ccccc1 (stereo not drawn) [phenylpropanolamine hydrochloride, reference compound] |  |  |  |  |  | 4 h |
